Test results: the kinase profiling compilation of Christmann-Franck et al. (2016)
Values joined by “and” are separate entries in the source; they are usually repeats but may differ in a detail not shown here. Equal entries are not always repeated.

Key:
Experiment in all cases: radiometric filter-binding kinase assay, Kinase HotSpot
Conditions in all cases: compound 0.5 µM; ATP 10 µM
[1] = molecular target: DAPK1 (human) (UniProt P53355)
[2] = molecular target: IGF1R (human) (UniProt P08069)
[3] = molecular target: PRKG1 (human) (UniProt Q13976)
[4] = molecular target: ABL2 (human) (UniProt P42684)
[5] = molecular target: MAP3K2 (human) (UniProt Q9Y2U5)
[6] = molecular target: PRKD2 (human) (UniProt Q9BZL6)
[7] = molecular target: NUAK1 (human) (UniProt O60285)
[8] = molecular target: MAPK13 (human) (UniProt O15264)
MAPK13 (human), sequence (O15264 whole entry, looked up): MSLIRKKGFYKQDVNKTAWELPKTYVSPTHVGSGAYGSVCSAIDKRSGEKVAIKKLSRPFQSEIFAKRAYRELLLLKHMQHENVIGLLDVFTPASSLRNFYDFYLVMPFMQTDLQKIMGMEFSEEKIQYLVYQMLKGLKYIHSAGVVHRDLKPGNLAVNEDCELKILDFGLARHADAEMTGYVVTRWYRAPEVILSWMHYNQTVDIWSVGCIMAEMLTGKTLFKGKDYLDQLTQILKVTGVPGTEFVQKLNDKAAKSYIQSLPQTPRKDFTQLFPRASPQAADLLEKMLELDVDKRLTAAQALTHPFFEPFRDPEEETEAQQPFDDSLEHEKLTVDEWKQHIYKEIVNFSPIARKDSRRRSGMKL

[9] = molecular target: FES (human) (UniProt P07332)
[10] = molecular target: GSK3A (human) (UniProt P49840)
[11] = molecular target: CAMK2B (human) (UniProt Q13554)
[12] = molecular target: DDR2 (human) (UniProt Q16832)
[13] = molecular target: EPHA3 (human) (UniProt P29320)
[14] = molecular target: NTRK2 (human) (UniProt Q16620)
NTRK2 (human), sequence (Q16620 whole entry, looked up): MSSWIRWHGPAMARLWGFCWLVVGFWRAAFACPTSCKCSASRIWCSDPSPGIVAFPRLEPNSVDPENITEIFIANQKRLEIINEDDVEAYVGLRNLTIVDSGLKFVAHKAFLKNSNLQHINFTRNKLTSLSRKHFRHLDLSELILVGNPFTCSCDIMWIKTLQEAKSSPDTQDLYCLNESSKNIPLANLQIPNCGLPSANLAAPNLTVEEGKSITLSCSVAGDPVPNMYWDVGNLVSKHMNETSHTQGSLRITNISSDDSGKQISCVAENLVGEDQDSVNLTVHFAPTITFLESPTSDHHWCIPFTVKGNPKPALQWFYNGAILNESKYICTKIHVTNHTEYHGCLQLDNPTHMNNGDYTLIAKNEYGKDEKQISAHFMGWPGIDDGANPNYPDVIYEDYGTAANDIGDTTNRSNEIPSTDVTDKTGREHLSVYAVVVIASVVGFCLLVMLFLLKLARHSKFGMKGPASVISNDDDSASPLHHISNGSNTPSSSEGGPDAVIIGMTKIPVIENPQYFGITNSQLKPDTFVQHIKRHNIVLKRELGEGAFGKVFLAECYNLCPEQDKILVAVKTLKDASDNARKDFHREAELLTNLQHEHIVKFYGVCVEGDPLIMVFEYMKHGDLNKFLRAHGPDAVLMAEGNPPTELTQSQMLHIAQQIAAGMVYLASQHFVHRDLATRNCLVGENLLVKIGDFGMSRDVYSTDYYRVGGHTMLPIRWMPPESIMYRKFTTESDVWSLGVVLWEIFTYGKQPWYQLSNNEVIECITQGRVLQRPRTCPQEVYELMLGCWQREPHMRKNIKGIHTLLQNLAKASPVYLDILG

[15] = molecular target: HIPK4 (human) (UniProt Q8NE63)
[16] = molecular target: CSNK1G2 (human) (UniProt P78368)
[17] = molecular target: EPHA1 (human) (UniProt P21709)
[18] = molecular target: CHUK (human) (UniProt O15111)
[19] = molecular target: RPS6KA3 KD1 KD2 (human) (UniProt P51812)
[20] = molecular target: CAMK1D (human) (UniProt Q8IU85)
[21] = molecular target: BTK (human) (UniProt Q06187)
BTK (human), sequence (Q06187 whole entry, looked up): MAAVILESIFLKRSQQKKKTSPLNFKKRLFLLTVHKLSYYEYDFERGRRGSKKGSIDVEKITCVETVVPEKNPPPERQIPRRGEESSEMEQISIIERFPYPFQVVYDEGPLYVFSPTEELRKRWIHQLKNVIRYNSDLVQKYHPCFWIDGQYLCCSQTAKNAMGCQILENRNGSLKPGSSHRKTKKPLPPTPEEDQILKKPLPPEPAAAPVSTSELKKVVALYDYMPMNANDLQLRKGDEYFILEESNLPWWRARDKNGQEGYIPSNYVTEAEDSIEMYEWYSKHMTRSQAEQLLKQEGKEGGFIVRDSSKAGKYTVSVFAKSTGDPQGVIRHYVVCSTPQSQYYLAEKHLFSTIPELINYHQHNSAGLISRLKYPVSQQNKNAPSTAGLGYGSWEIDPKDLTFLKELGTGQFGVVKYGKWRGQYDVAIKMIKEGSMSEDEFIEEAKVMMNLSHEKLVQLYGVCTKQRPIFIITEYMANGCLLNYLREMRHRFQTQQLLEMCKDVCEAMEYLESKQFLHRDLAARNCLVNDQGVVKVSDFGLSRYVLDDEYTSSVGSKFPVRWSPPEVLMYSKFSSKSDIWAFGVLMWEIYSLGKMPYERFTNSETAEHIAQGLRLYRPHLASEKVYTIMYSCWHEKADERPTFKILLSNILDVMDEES

[22] = molecular target: MARK1 (human) (UniProt Q9P0L2)
[23] = molecular target: NTRK3 (human) (UniProt Q16288)
[24] = molecular target: CDK4 CCND3 (human) (UniProt P30281+P11802)
[25] = molecular target: MERTK (human) (UniProt Q12866)
MERTK (human), sequence (Q12866 whole entry, looked up): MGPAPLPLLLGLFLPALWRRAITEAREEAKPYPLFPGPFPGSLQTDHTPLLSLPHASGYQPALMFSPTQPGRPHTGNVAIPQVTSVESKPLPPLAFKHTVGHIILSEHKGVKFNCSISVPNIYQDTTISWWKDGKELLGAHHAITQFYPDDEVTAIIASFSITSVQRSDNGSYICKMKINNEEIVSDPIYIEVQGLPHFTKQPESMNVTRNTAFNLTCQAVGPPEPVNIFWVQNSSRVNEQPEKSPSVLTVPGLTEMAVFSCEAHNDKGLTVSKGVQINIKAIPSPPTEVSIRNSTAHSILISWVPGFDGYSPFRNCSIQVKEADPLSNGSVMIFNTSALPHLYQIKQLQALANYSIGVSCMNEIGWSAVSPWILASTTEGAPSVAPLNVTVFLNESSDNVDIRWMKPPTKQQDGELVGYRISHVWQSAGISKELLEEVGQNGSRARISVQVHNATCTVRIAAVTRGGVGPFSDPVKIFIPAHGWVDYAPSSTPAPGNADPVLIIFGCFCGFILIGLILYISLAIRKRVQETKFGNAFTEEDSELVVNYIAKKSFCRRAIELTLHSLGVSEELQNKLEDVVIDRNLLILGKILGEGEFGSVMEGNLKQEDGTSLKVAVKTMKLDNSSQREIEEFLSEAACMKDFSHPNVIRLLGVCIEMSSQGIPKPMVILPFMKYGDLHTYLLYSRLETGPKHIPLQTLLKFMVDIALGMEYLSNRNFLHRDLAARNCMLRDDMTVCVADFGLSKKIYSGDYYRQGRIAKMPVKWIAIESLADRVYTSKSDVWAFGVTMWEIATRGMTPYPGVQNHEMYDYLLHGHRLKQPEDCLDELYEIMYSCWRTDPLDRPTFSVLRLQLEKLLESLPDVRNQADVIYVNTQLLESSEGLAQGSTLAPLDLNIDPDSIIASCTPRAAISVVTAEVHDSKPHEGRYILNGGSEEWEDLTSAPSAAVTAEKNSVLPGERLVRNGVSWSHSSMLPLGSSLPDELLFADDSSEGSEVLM

[26] = molecular target: CSNK2A2 (human) (UniProt P19784)
[27] = molecular target: NEK7 (human) (UniProt Q8TDX7)
[28] = molecular target: PTK2B (human) (UniProt Q14289)
PTK2B (human), sequence (Q14289 whole entry, looked up): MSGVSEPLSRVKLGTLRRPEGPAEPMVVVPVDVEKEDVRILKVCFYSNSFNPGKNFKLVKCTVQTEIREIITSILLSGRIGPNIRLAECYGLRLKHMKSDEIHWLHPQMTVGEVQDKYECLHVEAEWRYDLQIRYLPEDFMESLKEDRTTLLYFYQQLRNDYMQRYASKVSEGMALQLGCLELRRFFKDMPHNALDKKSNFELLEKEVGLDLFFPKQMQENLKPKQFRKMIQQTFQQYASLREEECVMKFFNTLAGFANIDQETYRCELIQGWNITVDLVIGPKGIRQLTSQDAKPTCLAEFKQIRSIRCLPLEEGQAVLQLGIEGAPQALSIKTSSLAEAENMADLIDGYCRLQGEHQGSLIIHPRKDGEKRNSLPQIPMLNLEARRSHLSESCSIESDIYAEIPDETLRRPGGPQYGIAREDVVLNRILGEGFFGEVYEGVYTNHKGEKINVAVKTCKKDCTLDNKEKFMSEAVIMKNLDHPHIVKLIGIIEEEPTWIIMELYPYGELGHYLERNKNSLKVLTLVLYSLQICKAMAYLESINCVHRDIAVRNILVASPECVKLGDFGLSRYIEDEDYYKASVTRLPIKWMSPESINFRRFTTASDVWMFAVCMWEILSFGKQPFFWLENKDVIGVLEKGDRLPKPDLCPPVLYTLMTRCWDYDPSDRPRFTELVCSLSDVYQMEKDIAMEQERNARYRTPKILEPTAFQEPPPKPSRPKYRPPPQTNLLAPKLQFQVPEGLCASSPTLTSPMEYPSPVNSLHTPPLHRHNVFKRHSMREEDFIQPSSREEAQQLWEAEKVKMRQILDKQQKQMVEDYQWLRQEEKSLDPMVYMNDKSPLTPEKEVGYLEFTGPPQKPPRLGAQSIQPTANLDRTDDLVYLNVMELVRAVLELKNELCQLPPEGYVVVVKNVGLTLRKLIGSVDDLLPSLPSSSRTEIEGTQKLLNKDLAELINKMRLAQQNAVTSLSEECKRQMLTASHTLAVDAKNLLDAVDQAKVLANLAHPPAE

[29] = molecular target: TSSK1B (human) (UniProt Q9BXA7)
[30] = molecular target: MAP2K2 (human) (UniProt P36507)
[31] = molecular target: TBK1 (human) (UniProt Q9UHD2)
[32] = molecular target: MAP3K9 (human) (UniProt P80192)
[33] = molecular target: EPHB2 (human) (UniProt P29323)
[34] = molecular target: EPHA8 (human) (UniProt P29322)
EPHA8 (human), sequence (P29322 whole entry, looked up): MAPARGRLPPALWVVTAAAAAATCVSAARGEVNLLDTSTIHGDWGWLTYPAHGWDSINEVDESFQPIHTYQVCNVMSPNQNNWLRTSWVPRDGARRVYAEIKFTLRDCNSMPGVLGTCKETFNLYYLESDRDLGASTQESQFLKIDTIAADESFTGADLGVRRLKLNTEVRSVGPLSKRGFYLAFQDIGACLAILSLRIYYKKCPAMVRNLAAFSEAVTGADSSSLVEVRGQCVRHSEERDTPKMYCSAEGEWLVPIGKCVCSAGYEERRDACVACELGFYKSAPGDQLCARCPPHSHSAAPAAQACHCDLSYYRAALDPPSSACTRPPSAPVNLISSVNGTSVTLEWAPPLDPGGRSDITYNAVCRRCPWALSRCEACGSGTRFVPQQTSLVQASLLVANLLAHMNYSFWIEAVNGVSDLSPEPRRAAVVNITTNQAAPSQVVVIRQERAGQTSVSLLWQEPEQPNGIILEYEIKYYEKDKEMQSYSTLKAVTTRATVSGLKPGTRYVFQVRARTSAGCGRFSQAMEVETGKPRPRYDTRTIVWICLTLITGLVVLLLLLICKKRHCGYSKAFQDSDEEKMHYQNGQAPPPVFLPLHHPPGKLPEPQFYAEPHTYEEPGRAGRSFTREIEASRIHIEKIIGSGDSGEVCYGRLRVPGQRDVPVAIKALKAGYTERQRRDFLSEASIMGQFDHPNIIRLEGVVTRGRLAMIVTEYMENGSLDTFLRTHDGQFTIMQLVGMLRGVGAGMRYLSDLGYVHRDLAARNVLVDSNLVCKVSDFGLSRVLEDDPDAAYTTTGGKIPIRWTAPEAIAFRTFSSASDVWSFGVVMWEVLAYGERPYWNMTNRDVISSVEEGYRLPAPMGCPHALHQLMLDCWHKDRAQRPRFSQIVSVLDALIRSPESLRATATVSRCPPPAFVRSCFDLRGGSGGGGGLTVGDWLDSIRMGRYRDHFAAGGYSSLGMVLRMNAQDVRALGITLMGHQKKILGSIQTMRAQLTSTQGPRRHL

[35] = molecular target: NUAK2 (human) (UniProt Q9H093)
[36] = molecular target: JAK1 JH1 catalytic (human) (UniProt P23458)
[37] = molecular target: EPHA2 (human) (UniProt P29317)
[38] = molecular target: DYRK1A (human) (UniProt Q13627)
[39] = molecular target: GSG2 (human) (UniProt Q8TF76)
[40] = molecular target: RET (human) (UniProt P07949)
[41] = molecular target: STK25 (human) (UniProt O00506)
[42] = molecular target: SRPK2 (human) (UniProt P78362)

## c1ccc(-c2cnc(Nc3ccc(OCCN4CCCC4)cc3)s2)cc1
[1]
  residual activity: 95.1%
[2]
  residual activity: 112%
[3]
  residual activity: 96.7% and 100%
[4]
  residual activity: 37.2%
[5]
  residual activity: 104%
[6]
  residual activity: 82.2%
[7]
  residual activity: 56.4%
[8]
  residual activity: 104%
[9]
  residual activity: 93.2%
[10]
  residual activity: 99.2%
[11]
  residual activity: 84.2%
[12]
  residual activity: 86.6%
[13]
  residual activity: 98.7%
[14]
  residual activity: 50.4%
[15]
  residual activity: 98.5%
[16]
  residual activity: 100%
[17]
  residual activity: 85.3%
[18]
  residual activity: 93.3%
[19]
  residual activity: 92.2%
[20]
  residual activity: 101%
[21]
  residual activity: 101%
[22]
  residual activity: 90.1%
[23]
  residual activity: 22.6%
[24]
  residual activity: 84.9%
[25]
  residual activity: 87.8%
[26]
  residual activity: 92.1%
[27]
  residual activity: 100%
[28]
  residual activity: 77.2%
[29]
  residual activity: 96.5%
[30]
  residual activity: 90.2%
[31]
  residual activity: 87.1%
[32]
  residual activity: 94.3%
[33]
  residual activity: 75.6%
[34]
  residual activity: 96.2%
[35]
  residual activity: 107%
[36]
  residual activity: 101%
[37]
  residual activity: 108%
[38]
  residual activity: 94.2%
[39]
  residual activity: 106%
[40]
  residual activity: 84.2%
[41]
  residual activity: 95.5%
[42]
  residual activity: 103%

## Cn1cc(/C=C2\C(=O)Nc3ccc(S(N)(=O)=O)cc32)c2ccccc21
[1]
  residual activity: 98.9%
[2]
  residual activity: 87.9%
[3]
  residual activity: 81.1% and 87.2%
[4]
  residual activity: 54.2%
[5]
  residual activity: 92.1%
[6]
  residual activity: 87.2%
[7]
  residual activity: 5.88%
[8]
  residual activity: 105%
[9]
  residual activity: 57.4%
[10]
  residual activity: 100%
[11]
  residual activity: 86.5%
[12]
  residual activity: 100%
[13]
  residual activity: 80.9%
[14]
  residual activity: 4.83%
[15]
  residual activity: 86.2%
[16]
  residual activity: 100%
[17]
  residual activity: 101%
[18]
  residual activity: 109%
[19]
  residual activity: 12.4%
[20]
  residual activity: 69.6%
[21]
  residual activity: 30.4%
[22]
  residual activity: 40.4%
[23]
  residual activity: 1.18%
[24]
  residual activity: 94%
[25]
  residual activity: 45.9%
[26]
  residual activity: 66%
[27]
  residual activity: 101%
[28]
  residual activity: 43.1%
[29]
  residual activity: 17%
[30]
  residual activity: 94.7%
[31]
  residual activity: 21.6%
[32]
  residual activity: 28.1%
[33]
  residual activity: 84.8%
[34]
  residual activity: 83.4%
[35]
  residual activity: 102%
[36]
  residual activity: 83.9%
[37]
  residual activity: 93%
[38]
  residual activity: 92.2%
[39]
  residual activity: 93.1%
[40]
  residual activity: 1.93%
[41]
  residual activity: 83.5%
[42]
  residual activity: 51.4%

## COc1cccc(-c2cc(=O)c3ccccc3o2)c1N
[1]
  residual activity: 90.9%
[2]
  residual activity: 91.3%
[3]
  residual activity: 108% and 111%
[4]
  residual activity: 96.8%
[5]
  residual activity: 103%
[6]
  residual activity: 103%
[7]
  residual activity: 98.1%
[8]
  residual activity: 99.8%
[9]
  residual activity: 94.3%
[10]
  residual activity: 97%
[11]
  residual activity: 103%
[12]
  residual activity: 92%
[13]
  residual activity: 96.3%
[14]
  residual activity: 65.4%
[15]
  residual activity: 98.6%
[16]
  residual activity: 98.4%
[17]
  residual activity: 99.7%
[18]
  residual activity: 104%
[19]
  residual activity: 93.6%
[20]
  residual activity: 65.3%
[21]
  residual activity: 83.7%
[22]
  residual activity: 96.9%
[23]
  residual activity: 99.3%
[24]
  residual activity: 101%
[25]
  residual activity: 98%
[26]
  residual activity: 97.7%
[27]
  residual activity: 94.7%
[28]
  residual activity: 91.2%
[29]
  residual activity: 82.4%
[30]
  residual activity: 69.2%
[31]
  residual activity: 94.3%
[32]
  residual activity: 93.2%
[33]
  residual activity: 88%
[34]
  residual activity: 96.3%
[35]
  residual activity: 82.9%
[36]
  residual activity: 98.9%
[37]
  residual activity: 105%
[38]
  residual activity: 94%
[39]
  residual activity: 95.7%
[40]
  residual activity: 107%
[41]
  residual activity: 106%
[42]
  residual activity: 91.7%
